Experimental data taken from patent US20210355104A1, “ADENOSINE RECEPTOR BINDING COMPOUNDS” (Nikang Therapeuticsm Inc., priority 2018, published 2021).
Values joined by “and” are separate entries in the source; they are usually repeats but may differ in a detail not shown here. Equal values may be shown once. Read-outs that look alike come from different tables or passages of the source.

What was measured:
Adenosine A2A receptor = Adenosine A2A receptor (Homo sapiens, UniProt P29274); experiment: cAMP assay in 293A cells stably expressing the adenosine A2A receptor (CGS21680 stimulation, HTRF); format: cell-based; set-up: expressed in transfected cells; host or cells: 293A cells (Invitrogen, Cat# R705-07) infected with A2A-expressing lentivirus (custom packaged by Biosettia), puromycin selected; settings: 0.1% BSA
[1] = system: p-CREB (phosphorylated cAMP response-element binding protein) in human whole blood; experiment: p-CREB assay in human whole blood by flow cytometry (NECA stimulation, CD4 staining); format: cell-based
Experimental: Assay protocol for p-CREB (phosphorylated cAMP response-element binding protein) in human whole blood by flow cytometry
Fresh human whole blood (Biological Specialty Corporation) was added at 100 ul per wellinto a 96-well plate and treated with test compounds (Serial dilutions of 1:3 with starting concentration at 30 uM, 11 concentrations total, in the presence of adenosine deaminase) for one hour at room temperature on a plate shaker. Then 10 ul of 10× NECA (50 uM stock in PBS) and 10 ul of 10 × Rolipram (50 uM stock in PBS) were added, with designated wells for unstimulated (Rolipram+DMSO) and stimulated (Rolipram+NECA+DMSO) conditions. The plates were mixed well and incubated at room temperature for 30 min on a plate shaker. 1× lyse/Fix buffer (5× stock, BD #558049) was warmed to 37° in a water bath. 1200 ul of pre-warmed 1× lyse/Fix buffer was then added to the plate, which was then sealed and mixed by inverting the plate a few times. The plate was then incubated for 30 min at 37° in a water bath. After incubation, the plate was centrifuged at 1600 rpm for 5 min and the supernatant was decanted, then 1200 ul PBS was added and the plate was mixed by inverting a few times followed by centrifuging at 1600 rpm for 5 min and again decanting the supernatant. Then, 200 ul FIX PERM buffer II (BD #558052) was added and the plate was mixed well, then kept on ice for 45 min After spinning the plate at 1600 rpm for 5 min the supernatant was again decanted. Then was added 200 ul staining buffer (BD #554657), and the plate was mixed well and spun at 1600 rpm for 5 min, then the supernatant was again decanted. 200 ul staining buffer was added, the plate was mixed well and the plate was sealed at this step for storage at 4° overnight or until staining. Before staining, the plate was spun at 1600 rpm for 5 min and the supernatant was again decanted. Antibody mix in staining buffer was prepared (75 ul/well, 1:50 dilution for p-CREB antibody from Cell Signaling Tech #14001S, 1:200 dilution for CD4 antibody from BD #566320) and the cells were resuspended in the above antibody mix solution. After mixing well, the plate was incubated (shielded from light) at room temperature for two hours on a plate shaker. It was then spun at 1600 rpm for 5 min and the supernatant was decanted. 200 ul staining buffer was then added to wash cells, and the plate was then mixed by shaking or pipetting. The wash step was repeated at least one more time, and after the final wash, cells were resusptended in 200 ul staining buffer in U bottom plate for flow cytometry analysis.

[2] = 293A-A2AR cells, 1 uM CGS, read-out: cAMP (nM) 0.1% BSA, 1 uM CGS
[3] = 293A cells stably expressing A2A receptor, 1 uM CGS21680 stimulation, replicate values separated by /, read-out: cAMP (nM) 0.1% BSA, 1 uM CGS
[4] = Homo sapiens, replicate values separated by /
[5] = replicate values separated by /

Sequence of Adenosine A2A receptor (P29274 whole entry): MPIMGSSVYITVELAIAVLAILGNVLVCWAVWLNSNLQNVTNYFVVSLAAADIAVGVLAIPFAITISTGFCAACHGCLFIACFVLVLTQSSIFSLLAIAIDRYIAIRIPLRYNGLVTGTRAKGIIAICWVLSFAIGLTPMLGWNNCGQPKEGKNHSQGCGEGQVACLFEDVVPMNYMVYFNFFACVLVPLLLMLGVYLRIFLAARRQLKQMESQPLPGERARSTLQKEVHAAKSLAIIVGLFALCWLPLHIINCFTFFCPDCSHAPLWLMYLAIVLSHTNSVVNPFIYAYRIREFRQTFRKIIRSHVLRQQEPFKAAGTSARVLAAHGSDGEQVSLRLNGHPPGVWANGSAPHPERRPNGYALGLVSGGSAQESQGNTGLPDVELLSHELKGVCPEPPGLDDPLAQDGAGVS

Structure (SMILES) | IC50 (Adenosine A2A receptor; [2]) | IC50 ([1]; Homo sapiens) | IC50 (Adenosine A2A receptor; [3]) | IC50 [1, 4] | further results
Cc1cc(-c2c(OCc3nnn(C)n3)nc(N)nc2-c2ccc(F)cc2)cc(C(F)F)n1 [Example 241, 5-(2-(difluoromethyl)-6-methylpyridin-4-yl)-4-(4-fluorophenyl)-6-((2-methyl-2H-tetrazol-5-yl)methoxy)pyrimidin-2-amine] | 213 nM | 221 nM |  |  | 
Cc1cc(-c2c(OCCN(C)c3cccc(C(C)(C)C#N)n3)nc(N)nc2-c2ccc(F)cc2)cc(C(F)F)n1 [Example 320] | 13 nM and 26 nM and 8.7 nM | 141 nM |  |  | 
Cc1cc(-c2c(OC3CCn4ccnc43)nc(N)nc2-c2ccc(F)cc2)cc(C(F)F)n1 (centres unmarked) [Example 284, 5-(2-(difluoromethyl)-6-methylpyridin-4-yl)-4-((6,7-dihydro-5H-pyrrolo[1,2-a]imidazol-7-yl)oxy)-6-(4-fluorophenyl)pyrimidin-2-amine] | 382 nM and 289 nM | 392 nM |  |  | 
CCn1nccc1COc1nc(N)nc(-c2ccc(F)cc2)c1-c1cc(C)nc(C(F)F)c1 [Example 227, 5-(2-(difluoromethyl)-6-methylpyridin-4-yl)-4-((1-ethyl-1H-pyrazol-5-yl)methoxy)-6-(4-fluorophenyl)pyrimidin-2-amine] | 29 nM and 97 nM and 71 nM | 17.8 nM |  |  | 
Cc1cc(-c2c(OCc3cccc(C(C)(C)C#N)n3)nc(N)nc2-c2ccc(F)cc2)cc(C(F)F)n1 [Example 230, 2-(6-(((2-amino-5-(2-(difluoromethyl)-6-methylpyridin-4-yl)-6-(4-fluorophenyl)pyrimidin-4-yl)oxy)methyl)pyridin-2-yl)-2-methylpropanenitrile] | 7 nM and 40 nM and 64 nM | 32.4 nM |  |  | IC50 [1]: 37.6 nM
CCn1c(COc2nc(N)nc(-c3ccc(F)cc3)c2-c2cc(C)nc(C(F)F)c2)nc2ccccc21 [Example 315, 5-(2-(difluoromethyl)-6-methylpyridin-4-yl)-4-((1-ethyl-1H-benzo[d]imidazol-2-yl)methoxy)-6-(4-fluorophenyl)pyrimidin-2-amine] | 1.8 nM and 15 nM | 24.8 nM |  |  | 
Cc1cc(-c2c(OCc3cccc(N(C)C)n3)nc(N)nc2-c2ccc(F)cc2)cc(C(F)F)n1 [Example 282, 5-(2-(difluoromethyl)-6-methylpyridin-4-yl)-4-((6-(dimethylamino)pyridin-2-yl)methoxy)-6-(4-fluorophenyl)pyrimidin-2-amine] | 90 nM and 21 nM and 100 nM | 50 nM |  |  | 
Cc1cc(-c2c(OCc3cccc(CNCC(N)=O)n3)nc(N)nc2-c2ccc(F)cc2)cc(C(F)F)n1 [Example 433, 2-(((6-(((2-amino-5-(2-(difluoromethyl)-6-methylpyridin-4-yl)-6-(4-fluorophenyl)pyrimidin-4-yl)oxy)methyl)pyridin-2-yl)methyl)amino)acetamide] |  |  | 342 nM and 210 nM | 59 nM | 
Cc1cc(-c2c(OCc3cccc([C@@H]4C[C@@H]4C(=O)O)n3)nc(N)nc2-c2ccc(F)cc2)cc(C(F)F)n1 (relative stereo) [Example 354, (1,2-cis)-2-(6-(((2-amino-5-(2-(difluoromethyl)-6-methylpyridin-4-yl)-6-(4-fluorophenyl)pyrimidin-4-yl)oxy)methyl)pyridin-2-yl)cyclopropane-1-carboxylic acid] | 563 nM and 977 nM | 549 nM |  |  | 
CNC(C)(C)c1cccc(COc2nc(N)nc(-c3ccc(F)cc3)c2-c2cc(C)nc(C(F)F)c2)n1 [Example 389, 5-(2-(difluoromethyl)-6-methylpyridin-4-yl)-4-(4-fluorophenyl)-6-((6-(2-(methylamino)propan-2-yl)pyridin-2-yl)methoxy)pyrimidin-2-amine] | 231 nM and 114 nM and 100 nM | 60 nM |  |  | 
Cc1cc(-c2c(OCc3ccc(=O)n(C)n3)nc(N)nc2-c2ccc(F)cc2)cc(C(F)F)n1 [Example 422, 6-(((2-amino-5-(2-(difluoromethyl)-6-methylpyridin-4-yl)-6-(4-fluorophenyl)pyrimidin-4-yl)oxy)methyl)-2-methylpyridazin-3(2H)-one] |  |  | 432 nM and 338 nM | 424 nM | 
Cc1cc(-c2c(OCc3cccc(-c4nn[nH]n4)n3)nc(N)nc2-c2ccc(F)cc2)cc(C(F)F)n1 [Example 399, 4-((6-(2H-tetrazol-5-yl)pyridin-2-yl)methoxy)-5-(2-(difluoromethyl)-6-methylpyridin-4-yl)-6-(4-fluorophenyl)pyrimidin-2-amine] |  |  | 273 nM and 362 nM and 482 nM and 440 nM | 201 nM | 
Cc1cc(-c2c(OCc3ccnc(N)n3)nc(N)nc2-c2ccc(F)cc2)cc(C(F)F)n1 [Example 413, 4-((2-aminopyrimidin-4-yl)methoxy)-5-(2-(difluoromethyl)-6-methylpyridin-4-yl)-6-(4-fluorophenyl)pyrimidin-2-amine] |  |  | 4.5 nM and 19 nM and 14 nM | 50.2 nM | IC50 [1, 5]: 40.8 nM
Cc1cc(-c2c(OCc3cccc(C(C)(C)NC(CO)CO)n3)nc(N)nc2-c2ccc(F)cc2)cc(C(F)F)n1 [Example 417, 2-((2-(6-(((2-amino-5-(2-(difluoromethyl)-6-methylpyridin-4-yl)-6-(4-fluorophenyl)pyrimidin-4-yl)oxy)methyl)pyridin-2-yl)propan-2-yl)amino)propane-1,3-diol] |  |  | 60 nM and 44 nM | 38.7 nM | 
Cc1cc(-c2c(OCc3nccn3C(C)C)nc(N)nc2-c2ccc(F)cc2)cc(C(F)F)n1 [Example 99, 5-(2-(difluoromethyl)-6-methylpyridin-4-yl)-4-(4-fluorophenyl)-6-((1-isopropyl-1H-imidazol-2-yl)methoxy)pyrimidin-2-amine] |  |  |  |  | IC50 (Adenosine A2A receptor; 293A-A2AR cells, 8 nM CGS, values separated by / are repeat determinations, read-out: cAMP (nM) 0.1% BSA, 8 nM CGS): 0.064 nM and 0.19 nM; IC50 (Adenosine A2A receptor; 293A-A2AR cells, 1 uM CGS, values separated by / are repeat determinations, read-out: cAMP (nM) 0.1% BSA, 1 uM CGS): 32 nM and 22 nM; IC50 ([1]; Homo sapiens, values separated by / are repeat determinations): 47 nM
Cc1cc(-c2c(OCc3cccc(C(C#N)(CCO)CCO)n3)nc(N)nc2-c2ccc(F)cc2)cc(C(F)F)n1 [Example 431, 2-(6-(((2-amino-5-(2-(difluoromethyl)-6-methylpyridin-4-yl)-6-(4-fluorophenyl)pyrimidin-4-yl)oxy)methyl)pyridin-2-yl)-4-hydroxy-2-(2-hydroxyethyl)butanenitrile] |  |  | 412 nM and 315 nM and 310 nM | 2000 nM | 
CCC(CC)(C(=O)O)c1cccc(COc2nc(N)nc(-c3ccc(F)cc3)c2-c2cc(C)nc(C(F)F)c2)n1 [Example 398, 2-(6-(((2-amino-5-(2-(difluoromethyl)-6-methylpyridin-4-yl)-6-(4-fluorophenyl)pyrimidin-4-yl)oxy)methyl)pyridin-2-yl)-2-ethylbutanoic acid] |  |  | 20 nM and 70 nM and 68 nM and 141 nM | 43.6 nM | IC50 [1, 5]: 26.2 nM
Cc1cc(-c2c(OCCN(C)c3nccc(C(C)(C)C(=O)O)n3)nc(N)nc2-c2ccc(F)cc2)cc(C(F)F)n1 [Example 373, 2-(2-((2-((2-amino-5-(2-(difluoromethyl)-6-methylpyridin-4-yl)-6-(4-fluorophenyl)pyrimidin-4-yl)oxy)ethyl)(methyl)amino)pyrimidin-4-yl)-2-methylpropanoic acid] | 240 nM and 248 nM and 387 nM and 191 nM | 421 nM |  |  | 
Cc1cc(-c2c(OCc3nc4ccccc4n3C(F)F)nc(N)nc2-c2ccc(F)cc2)cc(C(F)F)n1 [Example 355, 4-((1-(difluoromethyl)-1H-benzo[d]imidazol-2-yl)methoxy)-5-(2-(difluoromethyl)-6-methylpyridin-4-yl)-6-(4-fluorophenyl)pyrimidin-2-amine] | 10.2 nM and 11 nM and 13 nM | 5.7 nM |  |  | 
Cc1cc(-c2c(OCc3cc(C(C)(C)C#N)ccn3)nc(N)nc2-c2ccc(F)cc2)cc(C(F)F)n1 [Example 257, 2-(2-(((2-amino-5-(2-(difluoromethyl)-6-methylpyridin-4-yl)-6-(4-fluorophenyl)pyrimidin-4-yl)oxy)methyl)pyridin-4-yl)-2-methylpropanenitrile] | 250 nM and 171 nM | 19 nM |  |  | 
